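Five compound concentrations were applied to cells in 96-well plates for 48 hours; endpoints were derived by simple linear interpolation of the resulting dose-response curve. GI50: concentration for 50% inhibition of growth. TGI: total growth inhibition.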
Assays:
Test in all cases: NCI-60 cell line screen, 48 h
CCRF-CEM leukemia = system: CCRF-CEM leukemia
MOLT-4 leukemia = system: MOLT-4 leukemia
SF-268 CNS = system: SF-268 CNS
UACC-257 melanoma = system: UACC-257 melanoma
U251 CNS = system: U251 CNS
SN12C renal = system: SN12C renal
OVCAR-5 ovarian = system: OVCAR-5 ovarian
SK-MEL-5 melanoma = system: SK-MEL-5 melanoma
HT29 colon = system: HT29 colon
LOX IMVI melanoma = system: LOX IMVI melanoma

Structure (SMILES)	TGI (CCRF-CEM leukemia)	TGI (MOLT-4 leukemia)	TGI (SF-268 CNS)	TGI (UACC-257 melanoma)	TGI (U251 CNS)	TGI (SN12C renal)	TGI (OVCAR-5 ovarian)	TGI (SK-MEL-5 melanoma)	TGI (HT29 colon)	TGI (LOX IMVI melanoma)	GI50 (MOLT-4 leukemia)	GI50 (SF-268 CNS)	GI50 (UACC-257 melanoma)	GI50 (U251 CNS)	GI50 (SN12C renal)	GI50 (OVCAR-5 ovarian)	GI50 (SK-MEL-5 melanoma)	GI50 (HT29 colon)	GI50 (LOX IMVI melanoma)	GI50 (CCRF-CEM leukemia)
CC1(CO)C(O)CCC2(C)C1C(O)CC1CC3CC12CCC3(O)CO (stereo not given)	> 225 µM	> 141 µM	> 225 µM	> 225 µM	> 225 µM	> 225 µM	> 225 µM	> 225 µM	> 225 µM	> 225 µM										
O=c1ccn(Cc2ccccc2CCl)c(=O)[nH]1	> 100 µM	> 100 µM	75.8 µM	98.8 µM	85.2 µM	59.4 µM	37.4 µM	23.3 µM	68.6 µM											
Fc1ccc(Nc2ncc(-c3cc(F)c(Cl)cc3Cl)s2)cc1Cl		18.6 µM	20.3 µM	29.2 µM	23.7 µM	> 100 µM	30.5 µM	25.9 µM	> 100 µM	96 µM	5.46 µM	5.63 µM	14.3 µM	6.09 µM	3.91 µM	15.8 µM	12.3 µM	24.3 µM	9.08 µM	
CC(=O)Nc1c2sscc-2n(C)c1=O	1.51 µM	0.275 µM	3.09 µM	2.97 µM	2.54 µM	3.37 µM	3 µM	3.38 µM	0.692 µM	3.39 µM										
OCC(O)C(O)C(O)C(O)CNCCO/N=C1/C(c2c(O)[nH]c3ccccc23)=Nc2ccccc21 (stereo not given)	30.2 µM	36.3 µM	28 µM	37.9 µM	39.8 µM	46.4 µM	> 50 µM	16.3 µM	> 50 µM	17.3 µM										
O=C(CC(Cc1ccccc1)c1ccc(Oc2ccccc2)cc1)Nc1cccc(Cl)c1 (stereo not given)	21 µM	39.3 µM	> 100 µM	76.2 µM	> 100 µM	> 100 µM	> 100 µM	26.8 µM	> 100 µM	49.2 µM										
COc1ccc(C2CC(c3ccc(NS(=O)(=O)c4cc([N+](=O)[O-])ccc4C)cc3)=NN2S(=O)(=O)c2cc([N+](=O)[O-])ccc2C)cc1 (stereo not given)	> 100 µM	> 100 µM	79.9 µM	> 100 µM	> 100 µM	> 100 µM	> 100 µM	> 100 µM	> 100 µM	> 100 µM										
N#CC(NNC(=O)c1c(Cl)c(Cl)c(Cl)c(Cl)c1-c1nc2ccc(C(=O)c3ccccc3)cc2[nH]1)c1ccccc1 (stereo not given)	> 100 µM	27.7 µM	> 100 µM	> 100 µM	> 100 µM	31.1 µM	> 100 µM	13.3 µM	> 100 µM	87.9 µM										
O=[N+]([O-])c1ccc(NNN=Nc2ccc(-c3nc4ccccc4[nH]3)cc2)c([N+](=O)[O-])c1	> 100 µM	> 100 µM	> 100 µM	> 100 µM	> 100 µM	> 100 µM	> 100 µM	87.5 µM	> 100 µM	> 100 µM										
COc1ccc(/C=C2\C[C@H]3[C@@H]4CC=C5C[C@@H](OC(C)=O)CC[C@]5(C)[C@H]4CC[C@]3(C)C2=O)cc1OC	> 100 µM	> 100 µM	> 100 µM	> 100 µM		> 100 µM	> 100 µM	26.4 µM	> 100 µM	> 100 µM										
COC1=CC(=O)c2c(c(COC(C)=O)cn2C)C1=O	0.71 µM	0.653 µM	0.808 µM	1.43 µM	0.734 µM	0.325 µM	0.0689 µM	0.39 µM	0.124 µM	0.431 µM										
C1=Nc2ccccc2Cn2nncc21	> 100 µM	> 100 µM	> 100 µM		> 100 µM	> 100 µM	> 100 µM		> 100 µM	> 100 µM										
CC(C)NC(=O)OCc1nnn2c1CCC2	> 100 µM	> 100 µM		> 100 µM	> 100 µM	> 100 µM	> 100 µM	> 100 µM	> 100 µM	> 100 µM										
COc1ccc(N2C(=O)C(=O)N(C)C2=O)c2ccccc12	> 10 µM	> 10 µM	> 10 µM		> 10 µM	> 10 µM	> 10 µM	> 10 µM	> 10 µM	> 10 µM										
OC(c1ccccc1)C1CC2C=CC1C2 (stereo not given)	> 100 µM	> 100 µM	> 100 µM	> 100 µM	> 100 µM	> 100 µM	> 100 µM	> 100 µM	> 100 µM	> 100 µM										
O=[N+]([O-])c1ccc(Cc2nc3cc4ccccc4cc3[nH]2)cc1C(F)(F)F	> 100 µM	87.7 µM	39 µM	29.5 µM	37.3 µM	38 µM	27.5 µM	25.1 µM	> 100 µM	> 100 µM										
Clc1ccc(C2CC(c3cccc(Nc4ccncc4)c3)=NN2c2ccccc2)cc1 (stereo not given)	5.41 µM	4.32 µM	3.84 µM	3.83 µM	3.81 µM	3.31 µM	3.07 µM	3.26 µM	3.62 µM	3.06 µM	1.83 µM	1.87 µM	1.8 µM	1.89 µM	1.78 µM	1.66 µM	1.82 µM	1.69 µM	1.64 µM	1.94 µM
COc1cc(/C=N/N=C(\N)NO)ccc1O	> 100 µM	> 100 µM	> 100 µM	> 100 µM	> 100 µM	> 100 µM	90.3 µM	> 100 µM	> 100 µM	> 100 µM										
CC(C)C(=O)Nc1ccc(-c2nc(-c3cccc(OCCN4CCOCC4)c3)c(-c3ccnc(Br)c3)[nH]2)cc1	> 100 µM	> 100 µM	> 100 µM	5.68 µM	14.5 µM	> 100 µM	> 100 µM	3.25 µM		3.57 µM	2.31 µM	4.26 µM	2.37 µM	2.27 µM	4.46 µM	6.42 µM	1.79 µM		1.7 µM	3.27 µM
CC(C)(C)CNCCCNc1ccc(Cl)cc1	> 100 µM	25.6 µM	> 100 µM	58.1 µM	> 100 µM	> 100 µM	> 100 µM		56.5 µM	46.9 µM										
Fc1cc(C2=Nn3c(CNc4ccc(Cl)cc4)nnc3S/C2=C\c2ccc(-c3ccc(Cl)cc3)o2)c(Cl)cc1Cl	> 100 µM	> 100 µM	> 100 µM	> 100 µM	57.6 µM	> 100 µM	98.5 µM	> 100 µM	> 100 µM	> 100 µM										
O=C(c1cc(Cl)cc(Cl)c1)N(Cc1cccnc1)C(=S)N(Cc1cccnc1)C(=O)c1cc(Cl)cc(Cl)c1	> 100 µM	> 100 µM	> 100 µM	> 100 µM	61.3 µM	> 100 µM	> 100 µM	76 µM	> 100 µM	> 100 µM										
CNCCCn1c2c(c3ccc(Cl)cc3c1=O)C(=O)c1cc(OC)cnc1-2			2.19 µM	11.1 µM		3.04 µM	3.18 µM	2.49 µM	2.45 µM			0.397 µM	2.24 µM		1.18 µM	1.69 µM	1.12 µM	1.08 µM		
CSC1=C(SC)C(=O)c2cn(C)c(=O)cc2C1=O	0.826 µM	3.52 µM	17 µM	7.05 µM	26.2 µM	12.3 µM	35.2 µM	3.15 µM	13.1 µM	3.91 µM										
O=c1ccc2c(Cl)cccc2o1	> 100 µM	> 100 µM	> 100 µM	> 100 µM	> 100 µM	> 100 µM	> 100 µM	> 100 µM		> 100 µM										

— PubChem BioAssay (NCI)
